Earlier results in US20260217893A1, “ACID-BLOCKED PYRROLIDINE CATALYSTS FOR POLYURETHANE FOAM” (Huntsman Petrochemical LLC, priority 2019, published 2026).

Conditions: refs 2-5: CRC Handbook, U.S. Pat. No. 9,051,442, J. Org. Chem. 1961, J. Chem. Eng. Data 2016

Row | pKa | SMILES
1 | 9.18 | CN(C)CCN(C)CCO [JEFFCAT ® Z-110, N,N,N-trimethylaminoethyl-ethanolamine]
2 | 9.1 | CN(C)CCOCCO [JEFFCAT ® ZR-70, 2-(2-dimethylaminoethoxy) ethanol]
3 | 9.1 | CN(C)CCN(C)CCN(C)C [PMDETA, pentamethyldiethylenetriamine]

Row | SMILES | pKa
4 | CN(C)C1CCCCC1 [dimethylcyclohexylamine, N,N-dimethylcyclohexylamine] | 10.1
